Each structure is given as a SMILES string. Values after ≈ are worked out from the molar mass of the structure shown.

For the series the following is noted: buffer; pH 7.4; 200.0 µM.
In the case of `Cc1ccc(S(=O)(=O)N(C)c2ccc(OC(=O)c3cccs3)cc2)cc1`, the solubility (kinetic) (usually the concentration staying in solution when a stock, usually in DMSO, is diluted into the medium) came to 1.2 µg/mL (≈ 3.1 µM).
The value for `COc1cccc(CN(C)C(=O)C23CC4CC(CC(C4)C2)C3)c1` was 19.4 µg/mL (≈ 61.9 µM).
The compound `O=C(Nc1ccccc1Cl)OC1CN2CCC1CC2` (stereo not drawn) showed a kinetic solubility of 38.1 µg/mL (≈ 136 µM).
The compound `Cc1ccc(C(=O)NCCNC(=O)c2ccco2)cc1C` showed a kinetic solubility of 38.8 µg/mL (≈ 136 µM).
The same measure for `Cc1nc(=O)c(-c2ccccc2)c(C)n1-c1ccc(Br)cc1`: above 53.3 µg/mL; for `CN(Cc1ccccc1)c1c([N+](=O)[O-])c(=O)n(C)c2ccccc12`: 2.7 µg/mL (≈ 8.35 µM); for `COc1cccc(CNC(=O)CCCC(=O)NC(C)CCc2ccccc2)c1` (stereo not drawn): above 57.4 µg/mL.
The same measure for `COc1ccc(C(=O)NCC(=O)Nc2cccc(S(=O)(=O)N3CCCC3)c2)cc1`: 60.1 µg/mL (≈ 144 µM); for `Cc1ccc(S(=O)(=O)N2CCOCC2)cc1NC(=O)COC(=O)Cc1ccccc1`: above 64.9 µg/mL.
The value for `Cn1cnnc1SCC(=O)Nc1ncc([N+](=O)[O-])s1` was above 45 µg/mL; that for `O=C(c1ccncc1)N1CCc2ccccc2C1` was above 35.7 µg/mL; that for `O=C(COc1ccc(F)cc1)N1CCCCCCC1` was 38.8 µg/mL (≈ 146 µM).
In turn, `COc1ccc(CNc2nc3ccccc3n2C)c(O)c1` gave a kinetic solubility of 10.7 µg/mL (≈ 37.8 µM).
The same measure for `Cc1cccc(-c2ncc(S(=O)(=O)C(C)(C)C)c(N)n2)c1`: 0.2 µg/mL (≈ 0.655 µM); for `C=CCn1c(O)c(C(CC)=Nc2cccc(C(=O)O)c2)c(=O)[nH]c1=O`: above 51.5 µg/mL; for `COc1ccc(OC)c(/C=C2\N=C(c3ccccc3)OC2=O)c1`: 0.8 µg/mL (≈ 2.59 µM).
The value for `O=S(=O)(Nc1ccccc1O)c1ccc(-c2ccccc2)cc1` was 12.3 µg/mL (≈ 37.8 µM); that for `S=c1[nH]nc(-c2cccc3ccccc23)n1-c1cccnc1` was above 45.7 µg/mL; that for `O=C(Cc1c(F)cccc1Cl)Nc1ncc([N+](=O)[O-])s1` was 16.7 µg/mL (≈ 52.9 µM).
In the case of `COc1ccc(C(=O)NC(C)CCc2ccccc2)cc1[N+](=O)[O-]` (stereo not drawn), the solubility (kinetic) was 20.5 µg/mL (≈ 62.4 µM).
The same measure for `O=C(COC(=O)c1c(F)cccc1F)Nc1ccc(N2CCCCC2)cc1`: 5.2 µg/mL (≈ 13.9 µM); for `CC(=O)N1C(C(=O)O)Cc2c([nH]c3ccccc23)C1(C)C` (stereo not drawn): above 42.9 µg/mL.
The value for `CC(OC(=O)c1ccc(Cl)cc1)C(=O)NCC1CCCCC1` (stereo not drawn) was 13.8 µg/mL (≈ 42.6 µM); that for `CCCN(CCC)C(=O)CC(c1ccccc1)C1CCOC(C)(C)C1` (stereo not drawn) was 50.3 µg/mL (≈ 146 µM).
For `CCn1ncc(-c2csc(N)n2)c1C`, the solubility (kinetic) is above 31.2 µg/mL.
As for `Oc1ccccc1C(=S)N1CCN(c2cccc(Cl)c2)CC1`, the solubility (kinetic) worked out at 20 µg/mL (≈ 60.1 µM).
Compound `CCOCCn1c(=O)c2c(nc3n2CCCN3Cc2ccccc2)n(C)c1=O` returned a kinetic solubility above 57.5 µg/mL.
The value for `COc1ccc(C2(CNC(=O)c3cccs3)CCOCC2)cc1` was 48.6 µg/mL (≈ 147 µM); that for `Cc1cc(C)nc(NC(=S)NC(=O)c2ccccc2)n1` was 5.8 µg/mL (≈ 20.3 µM); that for `Nc1cc(N)nc(SCC(=O)NCCC2=CCCCC2)n1` was above 46.1 µg/mL.
The same measure for `CC(=O)Oc1ccc(C(=O)NCCc2ccccc2)cc1`: 21.5 µg/mL (≈ 75.9 µM); for `Cc1cc(C)n2nc(SCC(=O)N3CCN(c4ccccc4)CC3)nc2n1`: above 57.4 µg/mL; for `COc1ccccc1CNC(=O)Cn1cc([N+](=O)[O-])ccc1=O`: above 47.6 µg/mL.
Compound `CC(=O)Oc1ccccc1-n1c(C)nc(=O)c(-c2ccccc2)c1C` yielded a kinetic solubility of 48.9 µg/mL (≈ 146 µM).
Consider `Cc1ccc(-c2nc(N)sc2-c2ccc(C)cc2)cc1`, for which the kinetic solubility worked out at 0.5 µg/mL (≈ 1.78 µM). Compared with the last compound, the solubility kinetic is about 98-fold lower.
The value for `Cc1ccc2c(C)c(C(=O)N(C)Cc3nccn3C)oc2c1C` was above 46.7 µg/mL; that for `CCc1ccccc1NC(=O)Nc1cnccn1` was 6.1 µg/mL (≈ 25.2 µM); that for `CCc1ccc(C(=O)CN2C(=O)NC(C)(c3ccc(C)cc3)C2=O)cc1` (stereo not drawn) was 2.1 µg/mL (≈ 5.99 µM).
The value for `Cc1ccc(C)c(NC(=O)CN(C)C(=O)COc2ccc3ccccc3c2)c1` was 3.1 µg/mL (≈ 8.23 µM); that for `COc1ccc(S(=O)(=O)N2CCc3ccccc32)cc1C(=O)N1CCC(C)CC1` was 57.8 µg/mL (≈ 139 µM); that for `CC1NC(=S)N(Cc2ccccc2)C1=O` (stereo not drawn) was 31.9 µg/mL (≈ 145 µM).
`C=CCOCCN(C)C1=NS(=O)(=O)c2ccccc21.Cl`: the solubility (kinetic) is above 47.5 µg/mL.
The value for `NC(=O)CSc1nnc(NC(=O)c2ccc(Br)o2)s1` was above 54.5 µg/mL; that for `CCOc1nc(Nc2ccccc2)nc(OCC)n1` was 38 µg/mL (≈ 146 µM); that for `COc1ccccc1CCC(=O)Oc1ccc(C#N)cc1OC` was 9.5 µg/mL (≈ 30.5 µM).
The value for `Nc1nc(NCCOCCO)nc(NCc2ccccc2)c1[N+](=O)[O-]` was above 52.3 µg/mL; that for `O=C(CSc1ncccn1)NCC1CCCO1` (stereo not drawn) was above 38 µg/mL.
The same measure for `COc1ccccc1-n1c(/C=C/c2ccccn2)nc2ccccc2c1=O`: 7.3 µg/mL (≈ 20.5 µM).
For the compound `Cc1c(NS(=O)(=O)c2cc(C(=O)NCc3cccnc3)ccc2Cl)c(=O)n(-c2ccccc2)n1C`, the kinetic solubility is above 76.8 µg/mL.
The value for `Cc1ccccc1C(=O)Nc1ccccc1C(=O)NC1CC1` was above 44.2 µg/mL; that for `CN(Cc1cccc(F)c1)C(=O)c1cc(=O)[nH]c2ccccc12` was 44.3 µg/mL (≈ 143 µM).
The same measure for `O=[N+]([O-])c1ccc(C(O)C[n+]2ccccc2)cc1.[I-]` (stereo not drawn): 52.1 µg/mL.
As to `CNC(=S)Nc1ccc2nc(C)oc2c1`, the kinetic solubility was above 33.2 µg/mL.
On to `O=[N+]([O-])c1ccc(Sc2cc[n+]([O-])c3ccccc23)c([N+](=O)[O-])c1`, for which the solubility (kinetic) is 4.6 µg/mL (≈ 13.4 µM).
The value for `Cc1csc(NC(=O)CN2C(=O)c3ccccc3C2=O)c1C(N)=O` was 13 µg/mL (≈ 37.9 µM); that for `CN(Cc1ccc(F)cc1)C(=O)COc1ccc2ccccc2c1` was below 0.7 µg/mL; that for `CC(C)C(C(=O)NC1=NCCS1)c1ccc(Cl)cc1` (stereo not drawn) was 1.7 µg/mL (≈ 5.73 µM).
The value for `COc1cccc(OCC(=O)NCC2CCCO2)c1` (stereo not drawn) was above 39.8 µg/mL; that for `CC(=O)c1cccc(NC(=O)NCCc2c[nH]c3ccccc23)c1` was 2.2 µg/mL (≈ 6.85 µM); that for `COc1ccc(C(=O)CCC(=O)Nc2cccnc2)cc1OC` was above 47.2 µg/mL.
The same measure for `COc1ccc(NC(=O)c2ccc(Cl)cc2)c[n+]1[O-]`: above 41.8 µg/mL; for `CSc1ccc(CN2CCC(Cc3ccccc3)CC2)cc1`: 17.7 µg/mL (≈ 56.8 µM); for `CC(C)(C)C(=O)N1CCN(C(=O)c2ccco2)CC1`: above 39.6 µg/mL.
`CCCOc1ccc(N2C(=O)CC(N(CCCO)C(=O)CC)C2=O)cc1` (stereo not drawn) registered a kinetic solubility above 54.4 µg/mL.
In turn, `O=C(Cc1cccc2ccccc12)Nc1ccccc1Br` returned a kinetic solubility below 0.7 µg/mL.
The value for `CN1CCCN(C(=O)c2ccc(Br)s2)CC1` was above 45.5 µg/mL.
`CCOc1ccc(Nc2cc(=O)[nH]c(=O)[nH]2)cc1`: the kinetic solubility turned out to be 7.6 µg/mL (≈ 30.7 µM).
The same measure for `O=C(NCCSCc1ccc(Cl)cc1)c1cccs1`: 21.5 µg/mL (≈ 68.9 µM); for `CSc1nc(C)c(C(=O)C[n+]2ccc(C)cc2)cc1C#N.[Br-]`: 50 µg/mL.
The same measure for `CCOc1ccccc1NC(=O)c1ccc2[nH]c(C)c(C)c2c1`: 2.8 µg/mL (≈ 9.08 µM); for `CC(=O)c1ccc(N2CCN(C(=O)c3cc(S(=O)(=O)N4CCOCC4)ccc3C)CC2)cc1`: above 70.7 µg/mL.
The same measure for `COc1cccc2cc(C(=O)NCCc3ccccc3)oc12`: 26.9 µg/mL (≈ 91.1 µM); for `Cc1cc(NC(=O)Cc2ccc(Br)cc2)no1`: 1.8 µg/mL (≈ 6.1 µM); for `CCOc1cc(N2CCOCC2)c(OCC)cc1NC(=O)COC(=O)c1ccc(Cl)nc1`: 5.2 µg/mL (≈ 11.2 µM).
For the compound `CC(=O)N1CCN(C23CC4CC(CC(C4)C2)C3)CC1`, the solubility (kinetic) was above 39.4 µg/mL.
Consider `CCOc1ccc(N2CC(C(=O)Nc3cc(S(=O)(=O)N4CCCCC4)ccc3C)CC2=O)cc1` (stereo not drawn), for which the solubility (kinetic) is 1.3 µg/mL (≈ 2.68 µM).
The value for `Cc1cccc(NC(=O)c2ccco2)c1C(=O)O` was 34.8 µg/mL (≈ 142 µM); that for `CCc1c(C)nc(N)c(C#N)c1-c1ccccc1` was 0.3 µg/mL (≈ 1.26 µM); that for `Br.Cn1ccnc1SCC(=O)c1ccc(Cl)cc1` was 48.9 µg/mL.
The same measure for `S=C(NCCCc1ccccc1)NC1CCCCC1`: 22.5 µg/mL (≈ 81.4 µM).
The value for `C=C(C)CN1CCN(c2ccc(N3C(=O)CCCC3=O)cc2[N+](=O)[O-])CC1` was 54 µg/mL (≈ 145 µM).
Consider `Cc1nc(N)sc1-c1csc(Nc2cccc(C(=O)O)c2)n1`, for which the kinetic solubility was above 49.9 µg/mL.
`COc1ccc(NC(=S)NC2CCCCC2)c(OC)c1` came in with a solubility (kinetic) above 44.2 µg/mL.
The same measure for `NS(=O)(=O)c1ccc(CCNC(=O)c2ccc(Cl)nc2)cc1`: above 51 µg/mL; for `Cc1c(C=Nc2ccc(S(=O)(=O)N(C)C)cc2)c(O)[nH]c(=O)c1C#N`: 24.7 µg/mL (≈ 68.5 µM).
In turn, `COc1cc(/C=C/C(=O)OCC(=O)NCc2ccc(F)cc2)ccc1O` gave a solubility (kinetic) above 53.9 µg/mL.
The same measure for `O=C(O)CC(NCc1ccco1)C(=O)OCCCl` (stereo not drawn): above 41.4 µg/mL; for `Cc1ccc(NC(=O)c2ccc3c(c2)OCCO3)cc1C`: 25.8 µg/mL (≈ 91.1 µM).
`CSc1ccc(CNCCN2CCOCC2)cc1.Cl`: the kinetic solubility was above 50.9 µg/mL.
The compound `Cc1cc(C)c(NC(=S)NCCCSC2CCCCC2)c(C)c1` yielded a solubility (kinetic) of 6.1 µg/mL (≈ 17.4 µM).
`FC(F)Oc1cccc(NC(=S)N2CCN(c3ccccn3)CC2)c1`: the kinetic solubility came to 2.3 µg/mL (≈ 6.31 µM).
For `O=C(COc1ccc(F)cc1)N1CCCc2ccccc21`, the solubility (kinetic) came out at 33.6 µg/mL (≈ 118 µM).
The same measure for `CC1CCCCC1NC(=S)NC(=O)c1cccs1` (stereo not drawn): 5.5 µg/mL (≈ 19.5 µM); for `COC(=O)c1c(Sc2ccccc2)c2ccccc2n1C`: below 0.6 µg/mL; for `CCOC(=O)c1c(C)noc1-c1ccc(Br)o1`: below 0.6 µg/mL.
The same measure for `COc1ccc(C2Nc3ccccc3NC3=C2C(=O)CC(C)(C)C3)cc1O` (stereo not drawn): 34.7 µg/mL (≈ 95.2 µM).
The value for `CCC(C)N(C)C1CCN(C(=S)Nc2cccc(SC)c2)CC1` (stereo not drawn) was above 52.7 µg/mL; that for `Cc1ccc(S(=O)(=O)NCCCN2CCCC2)cc1` was above 42.4 µg/mL.
`Cc1cc(C)cc(C(=O)OCC(=O)NCc2ccco2)c1` returned a kinetic solubility above 43.1 µg/mL.
The compound `COCCn1c(C)c(C)c2c(NCCc3ccccc3)ncnc21` yielded a solubility (kinetic) of 34.8 µg/mL (≈ 107 µM).
The same measure for `COc1ccc(OC)c([N+](=O)[O-])c1C(N)=O`: above 33.9 µg/mL; for `CCCS(=O)(=O)Nc1ccc(-c2cn3c(n2)SCC3)cc1`: 44.5 µg/mL (≈ 138 µM); for `Cc1nc(-c2ccccc2Cl)sc1C(=O)/C=C/N(C)C`: 10.8 µg/mL (≈ 35.2 µM).

Source of the values: PubChem BioAssay AID1996.
